Measured values reported in patent US20030212014A1 (priority 2000, published 2003).

Tested on: HUVEC
Experiment: Apoptosis in HUVEC incubated with 2-bromopalmitate
Type: cell-based, human
Details: inhibition of free fatty acid oxidation
Procedure: To test this notion, experiments were performed in HUVEC incubated with 2-bromopalmitate, an inhibitor of CPT1 which inhibits free fatty oxidation, or a higher concentration of free fatty acids (0.5 mM vs. 0.1 mM palmitate).

SMILES: CCCCCCCCCCCCCCC(Br)C(=O)O (stereo not shown) [2-bromopalmitate]
- apoptosis: promotes apoptosis
